Test results taken from the NIST ThermoML archive (doi:10.1021/je050116g).

Experiments:
[1] = xn = mol fraction of the nth substance listed; conditions: 298.15 K, 101.33 kPa, Liquid
[2] = relative permittivity at various frequencies (dimensionless); xn = mol fraction of the nth substance listed; conditions: 298.15 K, 101.33 kPa, Liquid, Frequency=0.03 MHz, Parallel plate capacitor
[3] = 298.15 K; 101.33 kPa; Liquid

CCCCCCCCO [octan-1-ol] + CCCCCCCCCCCC
Conditions	mass density [kg/m3]	relative permittivity
[1], x1 = 0.00204	745.513	–
[1], x1 = 0.00419	745.594	–
[1], x1 = 0.00734	745.718	–
[1], x1 = 0.01454	746.026	–
[1], x1 = 0.02591	746.56	–
[1], x1 = 0.03144	746.83	–
[1], x1 = 0.04912	747.72	–
[1], x1 = 0.06408	748.489	–
[1], x1 = 0.08146	749.394	–
[1], x1 = 0.1014	750.468	–
[2], x1 = 0.000468	–	2.00782
[2], x1 = 0.000994	–	2.0085
[2], x1 = 0.00174	–	2.00946
[2], x1 = 0.002707	–	2.0107
[2], x1 = 0.003781	–	2.01209
[2], x1 = 0.005049	–	2.01375
[2], x1 = 0.006519	–	2.01566
[2], x1 = 0.008207	–	2.01774
[2], x1 = 0.009844	–	2.01966
[2], x1 = 0.01266	–	2.02275
[2], x1 = 0.01671	–	2.02679
[2], x1 = 0.02183	–	2.03146
[2], x1 = 0.02777	–	2.03652
[2], x1 = 0.03323	–	2.04101
[2], x1 = 0.0398	–	2.04628
[2], x1 = 0.04865	–	2.05338
[2], x1 = 0.05937	–	2.06205
[2], x1 = 0.06843	–	2.06953
[2], x1 = 0.0778	–	2.07741
[2], x1 = 0.08823	–	2.08648
[2], x1 = 0.09795	–	2.0952
[2], x1 = 0.111	–	2.10743

CCCCCCCO [heptan-1-ol]
Conditions	mass density [kg/m3]
[3]	818.746

CCCCCCCCCCCC [dodecane] + CCCCO
Conditions	mass density [kg/m3]	relative permittivity
[1], x2 = 0.00247	745.45	–
[1], x2 = 0.00337	745.455	–
[1], x2 = 0.00504	745.466	–
[1], x2 = 0.0089	745.497	–
[1], x2 = 0.01274	745.535	–
[1], x2 = 0.01568	745.569	–
[1], x2 = 0.02553	745.703	–
[1], x2 = 0.04126	745.979	–
[1], x2 = 0.06044	746.372	–
[1], x2 = 0.07754	746.736	–
[1], x2 = 0.1034	747.278	–
[2], x2 = 0.000394	–	2.00775
[2], x2 = 0.001092	–	2.00861
[2], x2 = 0.001852	–	2.00955
[2], x2 = 0.002663	–	2.01056
[2], x2 = 0.003575	–	2.01169
[2], x2 = 0.004582	–	2.01295
[2], x2 = 0.005742	–	2.01438
[2], x2 = 0.007082	–	2.016
[2], x2 = 0.008478	–	2.01762
[2], x2 = 0.009996	–	2.0193
[2], x2 = 0.01196	–	2.02134
[2], x2 = 0.01472	–	2.02405
[2], x2 = 0.01783	–	2.02693
[2], x2 = 0.02067	–	2.02939
[2], x2 = 0.0262	–	2.03399
[2], x2 = 0.03349	–	2.03984
[2], x2 = 0.04201	–	2.04663
[2], x2 = 0.05197	–	2.05466
[2], x2 = 0.06201	–	2.06298
[2], x2 = 0.07269	–	2.07228
[2], x2 = 0.08613	–	2.08475
[2], x2 = 0.09876	–	2.09732

CCCCCCCCCCO [decan-1-ol] + CCCCCCCCCCCC
Conditions	mass density, [1] [kg/m3]	relative permittivity, [2]
x1 = 0.001264	745.351	–
x1 = 0.001971	–	2.00974
x1 = 0.002235	745.401	–
x1 = 0.002902	–	2.01098
x1 = 0.003662	–	2.01199
x1 = 0.004525	–	2.01314
x1 = 0.00462	745.527	–
x1 = 0.005614	–	2.01459
x1 = 0.006788	–	2.01613
x1 = 0.007983	–	2.01764
x1 = 0.009268	–	2.0192
x1 = 0.01089	–	2.02107
x1 = 0.01183	745.934	–
x1 = 0.01283	–	2.02321
x1 = 0.01445	–	2.02492
x1 = 0.01654	–	2.027
x1 = 0.01864	–	2.029
x1 = 0.02121	–	2.03137
x1 = 0.02459	–	2.03426
x1 = 0.02958	–	2.03864
x1 = 0.0323	747.221	–
x1 = 0.03739	–	2.04514
x1 = 0.04685	–	2.05286
x1 = 0.05669	748.861	2.06088
x1 = 0.06704	–	2.06945
x1 = 0.07856	–	2.07915
x1 = 0.08334	750.666	–
x1 = 0.08846	–	2.08773
x1 = 0.1051	–	2.10262
x1 = 0.1069	752.273	–
